Measured values taken from patent EP3496534B1, “LIQUID CONCENTRATE FOR PRESERVATION” (Ashland Industries Europe GmbH, priority 2016, dated 2018).
“Also recorded” adds a separate entry of the source.

Tests used:
Assay type in all cases: physicochemical
[1] = Solubility of diols in fully demineralized water
[2] = Solubility of mixture A + diols; settings: 10g of substance added to 90g of mixture A
Protocol: 10g of each of the following substances was added to 90g of mixture A to obtain solutions (Table 3).

[3] = Solubility of various carboxylic acid salts + diols (appearance after stirring 3 h)
Protocol: Various carboxylic acid salts were mixed with diols in order to test whether homogenous concentrates could be obtained: […]
In example 4c, 10 g of 1-(2-ethyl hexyl) glycerol ether or of 1,2-octanediol, was added to an aqueous potassium sorbate solution in order to obtain solutions (Table 4c). Table 4c […]
In example 4e, 10g of 1-(2-ethyl hexyl) glycerol ether or of 1,2-octanediol was added to aqueous mixtures of potassium sorbate with sodium benzoate (weight ratio 1/1) in order to obtain solutions (Table 4e) Table 4e

[4] = Surface tension of mixture A with water or diols; settings: for surface tension (change against addition of 10 parts of water): 10 parts added to 90 parts of mixture A, application concentration of 1% in water; for Surface tension, 1% in water, mN/m: 90.0 parts mixture A + 10.0 parts of the substance
Protocol: The surface tension of mixtures of 90 parts of mixture A from example 1 with 10 parts of water or diols respectively was determined (Table 5): Table 5

[5] = 10.0 diol in potassium sorbate 5.0 / sodium benzoate 5.0 / water 80.0
[6] = 10.0 diol in potassium sorbate 10.0 / sodium benzoate 10.0 / water 70.0
[7] = 10.0 diol in potassium sorbate 10.0 / water 80.0
[8] = 10.0 diol in potassium sorbate 15.0 / sodium benzoate 15.0 / water 60.0
[9] = 10.0 diol in potassium sorbate 20.0 / water 70.0
[10] = 10.0 diol in potassium sorbate 22.5 / sodium benzoate 22.5 / water 45.0
[11] = 10.0 diol in potassium sorbate 30.0 / water 60.0
[12] = 10.0 diol in potassium sorbate 45.0 / water 45.0
[13] = 10.0 diol in sodium benzoate 10.0 / water 80.0
[14] = 10.0 diol in sodium benzoate 20.0 / water 70.0
[15] = 10.0 diol in sodium benzoate 30.0 / water 60.0
[16] = 10.0 diol in sodium benzoate 45.0 / water 45.0
[17] = 10.0 parts diol in potassium formate 45.0 / fully demineralized water 45.0
[18] = 10.0 parts diol in sodium propionate 30.0 / fully demineralized water 60.0

## CCCCCCCCCCC(O)CO (stereo not drawn) [1,2-dodecanediol]
[1]
  Solubility: < 0.1%
[2]
  Solubility of mixture A + diols: dissolve; also recorded: clear solution

## CCCCC(O)CO (stereo not drawn) [1,2-hexanediol]
[1]
  Solubility: Unlimited
[2]
  Solubility of mixture A + diols: clear solution

## CCCCCCC(O)CO (stereo not drawn) [1,2-octanediol]
[1]
  Solubility: 0.7%
[2]
  Solubility of mixture A + diols: clear solution
[3]; [5]
  Appearance of solution after stirring during 3 h: 2 phases
[3]; [6]
  Appearance of solution after stirring during 3 h: can dissolve; also recorded: clear
[3]; [7]
  Appearance of the solution after stirring during 3h: 2 phases
[3]; [8]
  Appearance of solution after stirring during 3 h: can dissolve; also recorded: clear
[3]; [9]
  Appearance of the solution after stirring during 3h: can dissolve; also recorded: clear
[3]; [10]
  Appearance of solution after stirring during 3 h: can dissolve; also recorded: clear
[3]; [11]
  Appearance of the solution after stirring during 3h: can dissolve; also recorded: clear
[3]; [12]
  Appearance of the solution after stirring during 3h: can dissolve; also recorded: clear
[3]; [13]
  Appearance of solution after stirring during 3 h: 2 phases
[3]; [14]
  Appearance of solution after stirring during 3 h: can dissolve; also recorded: clear
[3]; [15]
  Appearance of solution after stirring during 3 h: can dissolve; also recorded: clear
[3]; [16]
  Appearance of solution after stirring during 3 h: can dissolve; also recorded: clear
[3]; [17]
  Appearance after stirring for 3 h: can dissolve neither; also recorded: not dissolved, 2 phases
[3]; [18]
  Appearance after stirring for 3 h: can dissolve neither; also recorded: not dissolved, 2 phases
[4]
  surface tension (change against addition of 10 parts of water): significantly decreased
  Surface tension, 1% in water, mN/m: 44.7 mN/m

## CCCCC(CC)COCC(O)CO (stereo not drawn) [1-(2-ethylhexyl) glycerol ether]
[1]
  Solubility: 0.1%
[2]
  Solubility of mixture A + diols: clear solution
[3]; [5]
  Appearance of solution after stirring during 3 h: 2 phases
[3]; 10.0 diol in potassium sorbate 7.5 / sodium benzoate 7.5 / water 75.0
  Appearance of solution after stirring during 3 h: 2 phases
[3]; [6]
  Appearance of solution after stirring during 3 h: can dissolve
[3]; 10.0 diol in potassium sorbate 10.0 / sodium benzoate 10.0 / water 70.0, listed as 1-(2-ethylhexyl)-glycerol ether
  Appearance of solution after stirring during 3 h: clear
[3]; [7]
  Appearance of the solution after stirring during 3h: 2 phases
[3]; [8]
  Appearance of solution after stirring during 3 h: can dissolve
[3]; 10.0 diol in potassium sorbate 15.0 / sodium benzoate 15.0 / water 60.0, listed as 1-(2-ethylhexyl)-glycerol ether
  Appearance of solution after stirring during 3 h: clear
[3]; 10.0 diol in potassium sorbate 15.0 / water 75.0
  Appearance of the solution after stirring during 3h: 2 phases
[3]; [9]
  Appearance of the solution after stirring during 3h: clear
[3]; 10.0 diol in potassium sorbate 20.0 / water 70.0, listed as 1-(2-ethylhexyloxy)glycerol ether
  Appearance of the solution after stirring during 3h: can dissolve
[3]; [10]
  Appearance of solution after stirring during 3 h: can dissolve
[3]; 10.0 diol in potassium sorbate 22.5 / sodium benzoate 22.5 / water 45.0, listed as 1-(2-ethylhexyl)-glycerol ether
  Appearance of solution after stirring during 3 h: clear
[3]; [11]
  Appearance of the solution after stirring during 3h: clear
[3]; 10.0 diol in potassium sorbate 30.0 / water 60.0, listed as 1-(2-ethylhexyloxy)glycerol ether
  Appearance of the solution after stirring during 3h: can dissolve
[3]; [12]
  Appearance of the solution after stirring during 3h: clear
[3]; 10.0 diol in potassium sorbate 45.0 / water 45.0, listed as 1-(2-ethylhexyloxy)glycerol ether
  Appearance of the solution after stirring during 3h: can dissolve
[3]; [13]
  Appearance of solution after stirring during 3 h: 2 phases
[3]; 10.0 diol in sodium benzoate 15.0 / water 75.0
  Appearance of solution after stirring during 3 h: 2 phases
[3]; [14]
  Appearance of solution after stirring during 3 h: can dissolve; also recorded: clear
[3]; [15]
  Appearance of solution after stirring during 3 h: can dissolve; also recorded: clear
[3]; [16]
  Appearance of solution after stirring during 3 h: can dissolve; also recorded: clear
[3]; [17]
  Appearance after stirring for 3 h: can dissolve neither; also recorded: not dissolved, 2 phases
[3]; [18]
  Appearance after stirring for 3 h: not dissolved, 2 phases
[3]; 10.0 parts diol in sodium propionate 30.0 / fully demineralized water 60.0, listed as 1-(2-ethylhexyl)glycerol ether
  Appearance after stirring for 3 h: can dissolve neither
[4]
  surface tension (change against addition of 10 parts of water): significantly decreased
  Surface tension, 1% in water, mN/m: 35.6 mN/m

## CCCCCCCCCCCCOCC(O)CO (stereo not drawn) [1-dodecyl glycerol ether]
[1]
  Solubility: < 0.1%
[2]
  Solubility of mixture A + diols: clear solution

## OCC(O)CO [Glycerol (85%), Glycerol, reference compound]
[4]
  surface tension (change against addition of 10 parts of water): not observed
  Surface tension, 1% in water, mN/m: 72.2 mN/m

## CC(O)CO (stereo not drawn) [Propylene glycol, reference compound]
[4]
  surface tension (change against addition of 10 parts of water): not observed
  Surface tension, 1% in water, mN/m: 72.3 mN/m

## O [Water]
[4]
  Surface tension, 1% in water, mN/m: 71.9 mN/m
